Source: the NIST ThermoML archive (doi:10.1021/je300146k)
Numbers after ± are expanded uncertainties.

Settings: 298.15 K; 101.33 kPa; Liquid; Vibrating tube method

mass density [kg/m3] | Structure (SMILES)
759.27 ± 0.26 | CCCCCCCCCCCCCC [tetradecane]
698.76 ± 0.26 | CCCCCCCC [octane]
726.43 ± 0.26 | CCCCCCCCCC [decane]

Continued, compound first:

Structure (SMILES) | mass density [kg/m3]
OCc1ccccc1 [benzenemethanol] | 1043.53 ± 0.29
CCCCCCC [heptane] | 679.71 ± 0.21
CCCCCCCCCCCC [dodecane] | 741.54 ± 0.58
